Data reported in PubChem BioAssay AID1963831 (Molecular Pharmacology Branch, DTP, NCI, 2024).

Test system: 889142-216-R-J1-PDC complex spheroid viability
Test: Anticancer human tumor 889142-216-R-J1-PDC patient-derived bladder carcinoma cell line growth inhibition [POLQ]
Conditions: for IC50: curve of first compound; for viability, T/C: stronger effect = lower value
Protocol: Multicellular complex tumor spheroid response to Polymerase (POL) inhibitors (novobiocin, ART-558, RP6685) in combination with a variety of drugs and investigational agents in selected tumor cell lines
The POL inhibitors (novobiocin, ART-558, and RP6685) were evaluated both individually and in combination with standard of care and investigational anticancer small molecules within a complex spheroid model of solid tumors. . Complex spheroids include a stromal component modeled by human endothelial cells (HUVEC) and fibroblasts modeled by human mesenchymal stem cells (MSCs). The concentration ranges selected for each drug and investigational agent were based upon clinically achievable concentrations if the clinical Cmax of the agent was known.
Compounds. The drugs and investigational agents: novobiocin (NSC847541), ART-558 (NSC835418), RP-6685 (NSC848927), peposertib (NSC802822), ceralasertib (NSC780249), elimusertib (NSC800525), camonsertib (NSC841442), AZD-1390 (NSC803789), olaparib (NSC753686), talazoparib (NSC767125), rucaparib (NSC756644), sotorasib (NSC818433), MRTX-1133 (NSC836407), SN-38 (NSC673596), topotecan (NSC609699), epotoside (NSC141540), doxorubicin (NSC123127), gemcitabine (NSC613327), 5-fluorouracil (NSC19893), paclitaxel (NSC125973), vemurafenib (NSC761431), MSA-2 (NSC828583), SN-011 (NSC837082), adavosertib (NSC754352), prexasertib (NSC758257), carboplatin (NSC241240) and oxaliplatin (NSC266046), were obtained from the National Cancer Institute (NCI) Developmental Therapeutics Program Chemical Repository (21). The FDA-approved anticancer drug set is available from the Developmental Therapeutics Program at https://dtp.cancer.gov/organization/dscb/obtaining/. […] The stock solutions were prepared in dimethyl sulfoxide (DMSO, Sigma-Aldrich, St. Louis, MO, cat. D2650), except for the platinum compounds which were prepared in saline (Quality Biological, Gaithersburg, MD, cat. 114-055-101), at 800-fold the tested concentration and stored at -70 degrees C prior to their use. All drugs and investigational agents were tested over a range starting from a high concentration at or near the clinical Cmax and decreasing in half-log increments. If the clinical Cmax for an agent had not been determined, the highest concentration tested was 10 microM, except for SN-38, which was tested at a high concentration of 1 microM.
Cell Culture. All cells were maintained in an incubator at 37 degrees C and 5% CO2 with 95% humidity. The PDC lines were cultured according to standard operating procedures established by the NCI PDMR (https://pdmr.cancer.gov). Table 3 of the manuscript, lists the cell lines along with the number of the three cell types plated to form the mct-spheroids and media for tumor cell growth. After thawing, all PDC lines, except 997537-175-T-J1-PDC and 415267-285-R-J2-PDC, were cultured in Matrigel-coated flasks prepared with a working solution of 1X Ham's F-12 nutrient mix, without supplementation (Thermo Fisher Scientific, cat. 11765054), 100 U/mL penicillin-streptomycin (Thermo Fisher Scientific, cat. 15140122), and 2.5% Matrigel (Corning Inc., Corning, NY, cat. 354248) for the first three passages. The two PDC lines 997537-175-T-J1-PDC and 415267-285-R-J2-PDC were cultured on uncoated flasks. The 857933-349-R-J2-PDC line was cultured in 6C/Colon 1B media containing advanced DMEM/F-12 (Thermo Fisher Scientific, cat. 12634028), 10 mM HEPES (Thermo Fisher Scientific, cat. 15630080), 1X GlutaMAX supplement (Thermo Fisher Scientific, cat. 35050061), 0.1 mg/mL primocin (InvivoGen, San Diego, CA, cat. ant-pm-2), 10% defined fetal bovine serum, heat inactivated (HyClone Laboratories Inc., Logan, UT, cat. SH30070.03HI), 50% L-WRN conditioned media (ATCC, cat. CRL-3276), 1.25 mM N-Acetyl-L-cysteine (Sigma-Aldrich, cat. A9165), 10 mM nicotinamide (Sigma-Aldrich, cat. N0636), 1X B-27 supplement (Thermo Fisher Scientific, cat. 17504044), 1X N-2 supplement (Thermo Fisher Scientific, cat. […]
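Also: spheroids exposed to compounds for seven days.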
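For viability, T/C in this document: 100% = DMSO vehicle control viability.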

COc1cccc(OCCCN)c1-c1cc(Nc2cnc(C#N)cn2)n[nH]1 + Nc1ccc(C#CCN(C(=O)Cc2ncc(C(F)(F)F)cc2C(F)(F)F)c2ccc(F)cc2)nn1
IC50 (second compound 0.0316 µM): 136 nM
IC50 (second compound 0.1 µM): 161 nM
IC50 (second compound 0.316 µM): 93.3 nM
IC50 (second compound 1 µM): 32.9 nM
IC50 (second compound 3.16 µM): 29.3 nM
IC50 (second compound 10 µM): > 1000 nM
viability, T/C (second compound 0.0316 µM, first compound 0.00316 µM): 100%
viability, T/C (second compound 0.0316 µM, first compound 0.01 µM): 77.4%
viability, T/C (second compound 0.0316 µM, first compound 0.0316 µM): 60.2%
viability, T/C (second compound 0.0316 µM, first compound 0.1 µM): 45.8%
viability, T/C (second compound 0.0316 µM, first compound 0.316 µM): 51%
viability, T/C (second compound 0.0316 µM, first compound 1 µM): 49%
viability, T/C (second compound 0.1 µM, first compound 0.00316 µM): 98.5%
viability, T/C (second compound 0.1 µM, first compound 0.01 µM): 75.1%
viability, T/C (second compound 0.1 µM, first compound 0.0316 µM): 57.9%
viability, T/C (second compound 0.1 µM, first compound 0.1 µM): 54.6%
viability, T/C (second compound 0.1 µM, first compound 0.316 µM): 45.8%
viability, T/C (second compound 0.1 µM, first compound 1 µM): 46.2%
viability, T/C (second compound 0.316 µM, first compound 0.00316 µM): 99.6%
viability, T/C (second compound 0.316 µM, first compound 0.01 µM): 71.8%
viability, T/C (second compound 0.316 µM, first compound 0.0316 µM): 49.9%
viability, T/C (second compound 0.316 µM, first compound 0.1 µM): 49.9%
viability, T/C (second compound 0.316 µM, first compound 0.316 µM): 56.8%
viability, T/C (second compound 0.316 µM, first compound 1 µM): 43.6%
viability, T/C (second compound 1 µM, first compound 0.00316 µM): 79.1%
viability, T/C (second compound 1 µM, first compound 0.01 µM): 68%
viability, T/C (second compound 1 µM, first compound 0.0316 µM): 50%
viability, T/C (second compound 1 µM, first compound 0.1 µM): 44.5%
viability, T/C (second compound 1 µM, first compound 0.316 µM): 49%
viability, T/C (second compound 1 µM, first compound 1 µM): 39.5%
viability, T/C (second compound 3.16 µM, first compound 0.00316 µM): 76.8%
viability, T/C (second compound 3.16 µM, first compound 0.01 µM): 76.7%
viability, T/C (second compound 3.16 µM, first compound 0.0316 µM): 47.7%
viability, T/C (second compound 3.16 µM, first compound 0.1 µM): 48.9%
viability, T/C (second compound 3.16 µM, first compound 0.316 µM): 54%
viability, T/C (second compound 3.16 µM, first compound 1 µM): 41.9%
viability, T/C (second compound 10 µM, first compound 0.00316 µM): 85.8%
viability, T/C (second compound 10 µM, first compound 0.01 µM): 70.6%
viability, T/C (second compound 10 µM, first compound 0.0316 µM): 55.8%
viability, T/C (second compound 10 µM, first compound 0.1 µM): 51.8%
viability, T/C (second compound 10 µM, first compound 0.316 µM): 61%
viability, T/C (second compound 10 µM, first compound 1 µM): 45.6%
